Measurements reported in the supplement of paper PMC13380429.

Legend:
[1] = tested on: HepG2; experiment: relative viability EC50 (midpoint between 100% and the lowest measured viability); higher = less toxic; conditions: 72 h
[2] = tested on: Calu-3; experiment: as above; conditions: 72 h
[3] = tested on: Caco-2; experiment: as above; conditions: 72 h
[4] = tested on: U2OS; experiment: as above; conditions: 72 h
[5] = tested on: Vero E6; experiment: as above; conditions: 72 h
[6] = tested on: A549-ACE2 infected with SARS-CoV-2; experiment: SARS-CoV-2 infection rate relative to DMSO; higher = more infection; conditions: 24 h
[7] = tested on: A549-ACE2 infected with SARS-CoV-2; experiment: cell count relative to DMSO; higher = less toxic; conditions: 24 h
[8] = tested on: HepG2; experiment: cell viability relative to DMSO; higher = less toxic; conditions: 72 h
[9] = tested on: Calu-3; experiment: as above; conditions: 72 h
[10] = tested on: Caco-2; experiment: as above; conditions: 72 h
[11] = tested on: U2OS; experiment: as above; conditions: 72 h
[12] = tested on: Vero E6; experiment: as above; conditions: 72 h
[13] = tested on: A549-ACE2; experiment: drug-induced phospholipidosis relative to tamoxifen; higher = more phospholipidosis
[14] = tested on: HepG2; experiment: drug sensitivity score (DSS) for viability; higher = more toxic; extreme values may be limits of the assay; conditions: 72 h
[15] = tested on: Calu-3; experiment: as above; conditions: 72 h
[16] = tested on: Caco-2; experiment: as above; conditions: 72 h
[17] = tested on: U2OS; experiment: as above; conditions: 72 h
[18] = tested on: Vero E6; experiment: as above; conditions: 72 h
[19] = tested on: A549-ACE2 infected with SARS-CoV-2; experiment: morphology score (similarity to uninfected cells); higher = more like uninfected cells; conditions: 24 h
[20] = tested on: A549-ACE2; experiment: phospholipidosis EC50; higher = less potent phospholipidosis inducer

CCCc1cc(C)[nH]c(=O)c1CNC(=O)c1cc(-c2ccc(N3CCN(C(C)C)CC3)nc2)cc2c1cnn2C(C)C [UNC1999]
Conditions | drug sensitivity score | relative viability EC50 [µM]
[1] | – | > 10
[2] | – | > 10
[3] | – | > 10
[4] | – | > 10
[5] | – | > 10
[14] | 0 | –
[15] | 0.1 | –
[16] | 0.6 | –
[17] | 0 | –
[18] | 0 | –

Conditions | SARS-CoV-2 infection rate, [6] [%] | cell count, [7] [%] | cell viability, [8] [%] | cell viability, [9] [%] | cell viability, [10] [%] | cell viability, [11] [%] | cell viability, [12] [%] | morphology score, [19]
1 nM | – | – | 109 | 94.2 | 107 | 99.1 | 95.6 | –
10 nM | – | – | 100 | 103 | 103 | 102 | 94.6 | –
100 nM | – | – | 93.3 | 96.5 | 97.6 | 99.3 | 95.2 | –
0.3 µM | 100 | 103 | – | – | – | – | – | 0.06
1000 nM | – | – | 99.6 | 91.4 | 96.9 | 107 | 84.7 | –
3 µM | 87 | 109 | – | – | – | – | – | 0.43
10 µM | 29 | 119 | – | – | – | – | – | 0.8
10000 nM | – | – | 88.7 | 89.4 | 83.9 | 102 | 107 | –
30 µM | 13 | 121 | – | – | – | – | – | 0.6

drug-induced phospholipidosis [%], [13]
Conditions | 0.3 µM | 0.833333 µM | 3.33333 µM | 6.66667 µM | 10 µM | 30 µM
24 h | 15.7 | -2.03 | 5.96 | 5.07 | 18.5 | 38.5
48 h | 6.9 | -2.52 | 5.26 | 6.51 | 17.6 | 36.4
72 h | 1.41 | -4.2 | 4.48 | 4.14 | 13.9 | 37

CCN(CC)CCOc1ccc(C(O)(Cc2ccc(Cl)cc2)c2ccc(C)cc2)cc1 (stereo unspecified) [Triparanol]
Conditions | morphology score, 0.1 µM | morphology score, 0.3 µM | morphology score, 1 µM | morphology score, 3 µM | phospholipidosis EC50, 24 h [µM] | phospholipidosis EC50, 48 h [µM] | phospholipidosis EC50, 72 h [µM]
[19] | 0.02 | -0.17 | 0.22 | 0.85 | – | – | –
[20] | – | – | – | – | 2.19 | 2.74 | 3.71

Conditions | drug sensitivity score
[14] | 6.4
[15] | 5.5
[17] | 1.3
[18] | 0.7
